# Source: patent publication US20230219886A1, “NOVEL SELENO-NSAID ANALOGS AND USES THEREOF” (THE PENN STATE RESEARCH FOUNDATION, priority 2020, published 2023)
# Like-named read-outs stand apart in the source and are kept apart here.
# Columns and labels:
# [1] = test system: HT-29 cells; experiment: Annexin V & Dead cell apoptosis assay; format: cell-based, human; settings: HT29, 5 μM, 12 h
# Description: (§1) Apoptosis assay. Induction of apoptosis after the treatment with compounds 1a and 6a were analyzed using Annexin V & Dead cell assay kit and Caspase 3/7 Assay kit (EMD Millipore, Billercia, Mass.) using Muse cell analyzer following manufacturer's protocol. Briefly, the HT-29 cells were plated in triplicates in a six-well plate at densities of 1×10^5 cells/well. Following day, the cells were treated with the compounds 1a and 6a and incubated for 48 h. At the end of the treatment duration, the cells were prepared following manufacturer's guidelines and the data were acquired using Muse 1.4 software.
# (§2) Compounds 1a and 6a induced apoptosis in CRC cells. We further investigated whether the inhibition of cell cycle leads to apoptosis. In pursuit of this, HT29 cells were treated with 5 μM of the compounds 1a and 6a for indicated time intervals. Apoptosis was measured by using Annexin V & Dead cell assay kit and Caspase 3/7 Assay kit using Muse cell analyzer following manufacturer's protocol. The live cell population resided in the lower left quadrant and they start shifting towards the lower right quadrant (early apoptotic) or to upper right quadrant (late apoptotic/dead) after treatments. […] A similar trend was also observed after 6a treatment where the live cell population were decreased from <75% to <65% after 12 h and 24 h treatment, respectively.
# [2] = test system: HT-29 cells; experiment: Cell cycle analysis by flow cytometry; format: cell-based, human; settings: HT-29, 24 h; for population of cells in the S-phase: compared with vehicle; for population of cells in G1 and G2/M phases: compared with vehicle (DMSO)
# Description: Cell Cycle Analysis. Cell cycle analyses were determined by following a flow cytometry protocol as described earlier (82). In brief, HT-29 cells were serum deprived for 72 hours to get them synchronized. At the end of 72 hours, cells were supplied with fresh medium or fresh medium with 1, 2.5, 5 and 10 μM of 1a and 6a for 24 hours. After each time point, the cells were fixed in ice cold 70% ethanol. Fixed cells were washed with 1×PBS and suspended in PI staining solution. PI staining solution was made by adding 0.1% (v/v) triton X-100, 20 mg of DNase-free RNase A, and 2 mg of PI in 100 mL of PBS. After staining for 15 min, the cells were analyzed by flow cytometer (Coulter Epics XL, Beckman Coulter).
# Compounds 1a and 6a inhibited CRC cell growth by inducing cell cycle arrest. We investigated the effect 1a and 6a on the cell cycle by flow cytometry.
# [3] = test system: p21; experiment: Western blot protein expression, p21; format: cell-based, human; settings: HT-29, IC50 dose, 12 h and 24 h
# Description: (§3) Protein Expression Analysis. Western Blot was performed to assess the expression level of different proteins before and after treatment. In brief, HT-29 cells were treated with the compound for different time intervals and the whole-cell lysates were made by lysing cells using RIPA buffer (Thermo Scientific, USA). Protease (Roche, USA) and phosphatase inhibitor cocktails (Sigma-Aldrich, USA) were used to prevent the degradation of the proteins present in the lysate. The resulting lysates were incubated on ice for 30 min and spun at 10,000 rpm for 15 min to pellet down cell debris. The total protein concentration was determined using Bradford assay (Thermo Scientific, USA). Equal amounts of cell lysates were resolved using NuPAGE gel 4-12% (Life Technologies, Carlsbad, Calif.). The resolved proteins were electro-transferred to a PVDF membrane and different antibodies were used to probe the protein expression levels. Enhanced Chemiluminescent reagent (Life technologies, USA) was used to detect the protein of interest.
# (§4) To further explore the underlying mechanism of the cell cycle arrest, we studied the expression levels of the different proteins involved in the cell cycle regulation. […] At both time intervals of 12 h and 24 h, the expression levels of cell cycle regulatory proteins cyclin E1 and cyclin B1 were inhibited while p21 was induced (FIG. 7B).
# [4] = test system: HT-29 cells; experiment: Caspase 3/7 assay; format: cell-based, human; settings: HT29, 5 μM
# Description: as §1, §2
# [5] = test system: human CRC cells (HT-29, HCT-116, RKO and CACO-2); experiment: MTT assay, panel of four CRC cells; format: cell-based; settings: 4 CRC cells
# Description: Cell Culture Conditions. […] Culture medium was replaced every three days.
# Evaluation of the antiproliferative activity of methylseleno-NSAIDs, MSA and NSAIDs alone or in combination. […] CRC cells were treated for 24, 48 and 72 h at different concentrations to stablish the dose-response curves.
# [6] = test system: HCT-116 CRC cells; experiment: MTT cell viability assay, HCT-116; format: cell-based, human; settings: read-out: IC50
# Description: (§5) Cell Culture Conditions. The cell lines were obtained from the American Type Culture Collection (ATCC). PANC-1 and Caco-2 cell lines were maintained in DMEM medium (Gibco); HT-29, HCT-116 and RKO cells were maintained in McCoy's 5A medium (Gibco); and DU-145 and H1299 cells were maintained in RPMI 1640 medium (Gibco), supplemented with 10% fetal bovine serum (FBS; Gibco) and 1% antibiotics (10.00 units/mL penicillin and 10.00 mg/mL streptomycin; Gibco). Cells were preserved in tissue culture flasks at 37° C. and 5% CO2. Culture medium was replaced every three days.
# (§6) Cell Viability Assay. The effect of each compound on cell viability was tested using the MTT assay (81). Briefly, 9000 cells/well were grown in 96-well plates for 12 h. Then these cells were incubated with either DMSO (control) or nine different concentration between 0.01-50 μM of the test compounds for 24, 48, and 72 h. Three hours before the termination point, 20 μL of MTT were added to measure cellular viability. The resultant formazan crystals were dissolved in 50 μL of DMSO, and absorbance was measured at 570 nm and 630 nm wavelengths. IC50, GI50, TGI and LC50 values were calculated using OriginPro 8.5.1.
# [7] = test system: H1299 (lung carcinoma); experiment: MTT cell viability assay, H1299; settings: for cell viability: 48 h
# Description: as §5, §6
# (§7) Evaluation of the antiproliferative activities of the novel molecules. […] These four cell lines were treated with each compound at three concentrations (5, 25 and 50 μM) for 48 h.
# [8] = test system: Cyclin E1; experiment: Western blot protein expression, Cyclin E1; format: cell-based, human; settings: HT-29, IC50 dose, 12 h and 24 h
# Description: as §3, §4
# [9] = test system: Cyclin B1; experiment: Western blot protein expression, Cyclin B1; format: cell-based, human; settings: HT-29, IC50 dose, 12 h and 24 h
# Description: as §3, §4
# [10] = test system: DU-145 (prostate carcinoma); experiment: MTT cell viability assay, DU-145; settings: for cell viability: 48 h
# Description: as §5, §6, §7
# [11] = test system: RKO CRC cells; experiment: cells
# Description: as §5, §6
# [12] = test system: CACO-2 CRC cells; experiment: cells
# Description: as §5, §6
# [13] = Homo sapiens, NCI-H1299, 48 h, read-out: cell viability
# [14] = Homo sapiens, DU-145, 48 h, read-out: cell viability
structure (smiles),measurement,setting,value
"C[Se]C(=O)c1ccccc1OC(C)=O [Compound 1a, 2-((methylselanyl)carbonyl)phenyl acetate]",live cells,[1],< 76%
same,population of cells in the S-phase,[2],drastically reduced
same,population of cells in G1 and G2/M phases,[2],increase
same,expression level of p21,[3],sharp increase
same,apoptotic cell population,[4],time dependent increase
same,anti-tumoral activity versus MSA and NSAIDs as single agents or combined,[5],higher anti-tumoral activity
same,IC50,"[6]; Homo sapiens, HCT-116, 24 h",> 50000 nM
same,IC50,"[6]; Homo sapiens, HCT-116, 48 h",2200 ± 300 nM
same,IC50,"[6]; Homo sapiens, HCT-116, 72 h",1000 ± 200 nM
same,viability at 5 µM,[7]; [13],48.7 ± 5%
same,viability at 25 µM,[7]; [13],41.6 ± 7.2%
same,viability at 50 µM,[7]; [13],31.4 ± 7.7%
same,expression level of Cyclin E1,[8],went down substantially
same,expression level of Cyclin B1,[9],went down substantially
same,viability at 5 µM,[10]; [14],43.2 ± 1.8%
same,viability at 25 µM,[10]; [14],35.9 ± 7%
same,viability at 50 µM,[10]; [14],36.5 ± 6.7%
same,IC50,"[11]; Homo sapiens, 24 h",> 50000 nM
same,IC50,"[11]; Homo sapiens, 48 h",> 50000 nM
same,IC50,"[11]; Homo sapiens, 72 h",> 50000 nM
same,IC50,"[12]; Homo sapiens, Caco-2, 24 h",2600 ± 200 nM
same,IC50,"[12]; Homo sapiens, Caco-2, 48 h",900 ± 100 nM
same,IC50,"[12]; Homo sapiens, Caco-2, 72 h",800 ± 100 nM
"C[Se]C(=O)CC1=C(C)/C(=C/c2ccc([S+](C)[O-])cc2)c2ccc(F)cc21 (stereo not shown) [Compound 6a, Se-methyl (Z)-2-(5-fluoro-2-methyl-1-(4-(methylsulfinyl)benzylidene)-1H-indenyl)ethaneselenoate]",live cells,[1],< 75%
same,population of cells in the S-phase,[2],drastically reduced
same,population of cells in G1 and G2/M phases,[2],increase
same,expression level of p21,[3],sharp increase
same,apoptotic cell population,[4],time dependent increase
same,anti-tumoral activity versus MSA and NSAIDs as single agents or combined,[5],higher anti-tumoral activity
same,IC50,"[6]; HCT-116, 24 h",7300 ± 2300 nM
same,IC50,"[6]; HCT-116, 48 h",3200 ± 700 nM
same,IC50,"[6]; HCT-116, 72 h",1800 ± 600 nM
same,cell viability,"[7]; H1299, 5 μM",53.4 ± 20.2%
same,cell viability,"[7]; H1299, 25 μM",41.9 ± 14.9%
same,cell viability,"[7]; H1299, 50 μM",31.3 ± 6.4%
same,expression level of Cyclin E1,[8],went down substantially
same,expression level of Cyclin B1,[9],went down substantially
same,cell viability,"[10]; DU145, 5 μM",60.1 ± 2.2%
same,cell viability,"[10]; DU145, 25 μM",44.9 ± 2.4%
same,cell viability,"[10]; DU145, 50 μM",52.5 ± 2.9%
same,IC50,"[11]; RKO, 24 h",> 50000 nM
same,IC50,"[11]; RKO, 48 h",17200 ± 2400 nM
same,IC50,"[11]; RKO, 72 h",17300 ± 800 nM
same,IC50,"[12]; CACO-2, 24 h",3000 ± 500 nM
same,IC50,"[12]; CACO-2, 48 h",1300 ± 600 nM
same,IC50,"[12]; CACO-2, 72 h",700 ± 200 nM
